We go through 24 compounds from patent publication US20240190849A1, “AMINOPYRIMIDINE COMPOUNDS AND METHODS OF THEIR USE” (TYRA BIOSCIENCES, INC., priority 2021, published 2024).

Holding throughout (details): FGFR binding data
Test [1] addresses T1, FGFR2 (Homo sapiens, UniProt P21802).
T1 construct: made in house; host or cells: E. coli derived from BL21, infected with T7 phage
As to the kind of experiment: Kinase binding assay (kinase-tagged T7 phage, affinity beads, qPCR readout), FGFR2. The method, boiled down:
(§1)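 Kd values derive from Hill-equation fits (slope −1, Levenberg-Marquardt) of qPCR-quantified kinase recovered from ligand-coated beads. Compounds ran as 11-point 3-fold series, final DMSO 0.9%, with 1 hour room-temperature binding.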
(In general: Real-time PCR tracks product formation cycle by cycle.)

The target in test [2] is T2, FGFR3 (Homo sapiens, UniProt P22607).
T2 construct: made in house; host or cells: E. coli derived from BL21, infected with T7 phage
T2 sequence (P22607 23-806): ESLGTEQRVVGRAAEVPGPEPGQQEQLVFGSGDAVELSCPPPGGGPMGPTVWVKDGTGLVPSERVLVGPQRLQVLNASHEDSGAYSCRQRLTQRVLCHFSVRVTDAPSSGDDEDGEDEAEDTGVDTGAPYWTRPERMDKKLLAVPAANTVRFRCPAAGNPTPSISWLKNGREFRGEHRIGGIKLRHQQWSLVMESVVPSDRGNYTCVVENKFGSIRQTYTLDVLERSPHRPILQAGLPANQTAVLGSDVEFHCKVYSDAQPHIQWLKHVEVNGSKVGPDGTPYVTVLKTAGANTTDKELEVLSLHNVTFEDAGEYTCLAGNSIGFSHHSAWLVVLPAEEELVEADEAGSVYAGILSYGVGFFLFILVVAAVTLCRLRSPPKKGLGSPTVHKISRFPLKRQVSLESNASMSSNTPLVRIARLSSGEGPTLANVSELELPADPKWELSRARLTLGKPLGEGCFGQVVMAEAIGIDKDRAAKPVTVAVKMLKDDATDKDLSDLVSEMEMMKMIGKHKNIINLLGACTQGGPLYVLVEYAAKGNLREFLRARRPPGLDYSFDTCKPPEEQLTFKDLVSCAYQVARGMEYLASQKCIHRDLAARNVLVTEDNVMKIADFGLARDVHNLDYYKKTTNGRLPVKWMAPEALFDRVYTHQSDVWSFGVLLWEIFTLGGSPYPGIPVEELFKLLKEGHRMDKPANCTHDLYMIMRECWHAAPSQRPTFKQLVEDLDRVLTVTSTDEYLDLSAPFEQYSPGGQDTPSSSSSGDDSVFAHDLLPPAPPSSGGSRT
Kind of test: Kinase binding assay (kinase-tagged T7 phage, affinity beads, qPCR readout), FGFR3. The method, boiled down:
as §1

Test [3] addresses T3, FGFR3 (V555M) (Homo sapiens, UniProt P22607, V555M).
T3 construct: made in house; host or cells: E. coli derived from BL21, infected with T7 phage
Kind of test: Kinase binding assay (kinase-tagged T7 phage, affinity beads, qPCR readout), FGFR3 (V555M). Summed up:
as §1

For test [4], the target named is T4, FGFR1 (Homo sapiens, UniProt P11362).
T4 construct: made in house; host or cells: E. coli derived from BL21, infected with T7 phage
T4 sequence (P11362 22-822): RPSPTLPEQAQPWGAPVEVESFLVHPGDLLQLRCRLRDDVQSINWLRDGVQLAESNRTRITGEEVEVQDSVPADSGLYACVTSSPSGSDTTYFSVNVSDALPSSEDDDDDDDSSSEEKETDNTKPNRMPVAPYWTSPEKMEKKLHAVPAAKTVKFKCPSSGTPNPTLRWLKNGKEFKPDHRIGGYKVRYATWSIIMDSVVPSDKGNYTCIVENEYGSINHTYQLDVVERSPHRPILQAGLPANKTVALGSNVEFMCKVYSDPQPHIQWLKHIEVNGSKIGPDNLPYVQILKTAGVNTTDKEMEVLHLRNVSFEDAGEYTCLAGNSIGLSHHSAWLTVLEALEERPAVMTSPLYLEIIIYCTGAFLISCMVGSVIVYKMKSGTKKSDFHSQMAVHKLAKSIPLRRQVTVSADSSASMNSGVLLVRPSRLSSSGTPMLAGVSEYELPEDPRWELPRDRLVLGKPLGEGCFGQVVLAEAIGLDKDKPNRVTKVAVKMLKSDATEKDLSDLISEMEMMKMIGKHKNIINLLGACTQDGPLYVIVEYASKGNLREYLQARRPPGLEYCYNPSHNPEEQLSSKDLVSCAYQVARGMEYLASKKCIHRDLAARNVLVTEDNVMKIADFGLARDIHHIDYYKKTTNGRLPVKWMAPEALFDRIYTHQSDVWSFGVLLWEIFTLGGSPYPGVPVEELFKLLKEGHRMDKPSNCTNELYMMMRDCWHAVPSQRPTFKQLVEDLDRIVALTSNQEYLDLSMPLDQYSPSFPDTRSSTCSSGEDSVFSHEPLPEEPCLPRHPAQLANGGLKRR
As to the kind of experiment: Kinase binding assay (kinase-tagged T7 phage, affinity beads, qPCR readout), FGFR1. The method, boiled down: as §1

Where only a bound is given, the exact number is not on record here.

T3 sequence (P22607 23-806 V555M): as the sequence (P22607 23-806) above, with V533M counted along it
T1 sequence (P21802 22-821): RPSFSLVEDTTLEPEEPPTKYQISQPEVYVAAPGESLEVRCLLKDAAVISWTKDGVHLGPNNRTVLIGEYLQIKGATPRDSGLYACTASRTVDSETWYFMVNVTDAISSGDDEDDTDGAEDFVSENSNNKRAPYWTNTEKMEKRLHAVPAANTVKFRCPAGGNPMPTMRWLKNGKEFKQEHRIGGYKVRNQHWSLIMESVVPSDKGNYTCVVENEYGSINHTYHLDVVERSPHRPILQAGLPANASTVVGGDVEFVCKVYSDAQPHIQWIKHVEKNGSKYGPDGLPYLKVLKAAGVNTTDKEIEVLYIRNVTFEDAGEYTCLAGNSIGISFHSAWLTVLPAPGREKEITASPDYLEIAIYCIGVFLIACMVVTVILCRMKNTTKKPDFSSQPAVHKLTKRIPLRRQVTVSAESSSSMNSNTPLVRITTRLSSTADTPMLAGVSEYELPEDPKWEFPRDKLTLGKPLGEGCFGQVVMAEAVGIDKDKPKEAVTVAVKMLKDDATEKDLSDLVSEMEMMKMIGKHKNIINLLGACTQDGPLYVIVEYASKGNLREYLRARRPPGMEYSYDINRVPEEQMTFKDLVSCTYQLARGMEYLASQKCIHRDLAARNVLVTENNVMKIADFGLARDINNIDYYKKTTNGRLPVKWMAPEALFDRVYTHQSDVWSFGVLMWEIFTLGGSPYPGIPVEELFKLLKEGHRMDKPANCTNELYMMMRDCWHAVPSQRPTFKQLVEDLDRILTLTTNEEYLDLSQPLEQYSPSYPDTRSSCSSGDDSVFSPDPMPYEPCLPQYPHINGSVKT

For the compound `C=CC(=O)Nc1ccc2c(c1)c(C)cn2-c1nc(Nc2ccc(CN3CCOCC3)cc2)ncc1Cl` [Example 75, N-[1-[5-chloro-2-[4-(morpholinomethyl)anilino]pyrimidin-4-yl]-3-methyl-indol-5-yl]prop-2-enamide], the Kd in test [1], in test [2], in test [3] and in test [4] was 0.1 to 100 nM in each case.

Regarding `C=CC(=O)Nc1ccc2c(c1)c(C)cn2-c1ccnc(Nc2cnn(C)c2)n1` [Example 79, N-[3-methyl-1-[2-[(1-methylpyrazol-4-yl)amino]pyrimidin-4-yl]indol-5-yl]prop-2-enamide], the Kd in test [1], in test [2], in test [3] and in test [4] was 0.1 to 100 nM each time.

With `C=CC(=O)Nc1ccc2c(c1)c(C)cn2-c1ccnc(Nc2ccnn2C)n1` [Example 82, N-[3-methyl-1-[2-[(2-methylpyrazol-3-yl)amino]pyrimidin-4-yl]indol-5-yl]prop-2-enamide], the Kd lay in the range of 0.1 to 100 nM in test [1], 0.1 to 100 nM in test [2], 0.1 to 100 nM in test [3] and 100 to 250 nM in test [4].

Take `C=CC(=O)Nc1cnc2c(c1)c(C)cn2-c1ccnc(Nc2ccnn2C)n1` [Example 83, N-[3-methyl-1-[2-[(2-methylpyrazol-3-yl)amino]pyrimidin-4-yl]pyrrolo[2,3-b]pyridin-5-yl]prop-2-enamide]: the Kd in test [1], in test [2], in test [3] and in test [4] was 0.1 to 100 nM throughout.

As to `C=CC(=O)Nc1cc(C)c2c(c1)c(C)cn2-c1nc(Nc2cnn(C)c2)ncc1Cl` [Example 84, N-[1-[5-chloro-2-[(1-methylpyrazol-4-yl)amino]pyrimidin-4-yl]-3,7-dimethyl-indol-5-yl]prop-2-enamide], the Kd in test [1], in test [2], in test [3] and in test [4] was 0.1 to 100 nM throughout.

On to `C=CC(=O)Nc1ccc2c(c1)c(C)cn2-c1nc(Nc2ccc(CN3CCN(C)CC3)c(F)c2)ncc1Cl` [Example 86, N-[1-[5-chloro-2-[3-fluoro-4-[(4-methylpiperazin-1-yl)methyl]-anilino]pyrimidin-4-yl]-3-methyl-indol-5-yl]prop-2-enamide], for which the Kd in test [1], in test [2], in test [3] and in test [4] was 0.1 to 100 nM each time.

In the case of `C=CC(=O)Nc1ccc2c(c1)c(C)nn2-c1ccnc(Nc2ccnn2C)n1` [Example 87, N-[3-methyl-1-[2-[(2-methylpyrazol-3-yl)amino]pyrimidin-4-yl]indazol-5-yl]prop-2-enamide], the Kd in test [1], in test [2], in test [3] and in test [4] was over 1000 nM throughout.

For `C=CC(=O)Nc1ccc2c(c1)c(C)cn2-c1nc(Nc2cccc(N3CCN(CCO)CC3)c2)ncc1Cl` [Example 88, N-[1-[5-chloro-2-[3-[4-(2-hydroxyethyl)piperazin-1-yl]anilino]pyrimidin-4-yl]-3-methyl-indol-5-yl]prop-2-enamide], the Kd in test [1], in test [2], in test [3] and in test [4] was 0.1 to 100 nM in each case.

On to `C=CC(=O)Nc1ccc2c(c1)c(C)cn2-c1nc(Nc2ccc(N3CCOCC3)nc2)ncc1Cl` [Example 91, N-[1-[5-chloro-2-[(6-morpholino-3-pyridyl)amino]pyrimidin-4-yl]-3-methyl-indol-5-yl]prop-2-enamide], for which the Kd in test [1], in test [2], in test [3] and in test [4] was 0.1 to 100 nM throughout.

With `C=CC(=O)Nc1ccc2c(-c3ccnc(Nc4ccn(C)n4)n3)cn(C)c2c1` [Example 92, N-[1-methyl-3-[2-[(1-methylpyrazol-3-yl)amino]pyrimidin-4-yl]indol-6-yl]prop-2-enamide], the Kd was 100 to 250 nM in test [1], 0.1 to 100 nM in test [2], 100 to 250 nM in test [3] and 100 to 250 nM in test [4].

With `C=CC(=O)Nc1ccc2c(c1)c(C)cn2-c1nc(Nc2ccn(CC)n2)ncc1C` [Example 93, N-[1-[2-[(1-ethylpyrazol-3-yl)amino]-5-methyl-pyrimidin-4-yl]-3-methylindol-5-yl]prop-2-enamide], the Kd in test [1], in test [2], in test [3] and in test [4] was 0.1 to 100 nM in each case.

With `C=CC(=O)Nc1ccc2c(-c3ccnc(Nc4ccn(CC)n4)n3)cn(C)c2c1` [Example 94, N-[3-[2-[(1-ethylpyrazol-3-yl)amino]pyrimidin-4-yl]-1-methyl-indol-6-yl]prop-2-enamide], the Kd in test [1] was in the range of 250 to 1000 nM; in test [2], 0.1 to 100 nM; in test [3], 100 to 250 nM; in test [4] it was 100 to 250 nM.

For `C=CC(=O)Nc1ccc2c(-c3ccnc(Nc4cnn(CC)c4)n3)cn(C)c2c1` [Example 95, N-[3-[2-[(1-ethylpyrazol-4-yl)amino]pyrimidin-4-yl]-1-methyl-indol-6-yl]prop-2-enamide], the dissociation constant Kd in test [1], in test [2], in test [3] and in test [4] was 0.1 to 100 nM each time.

As for `C=CC(=O)Nc1ccc2c(-c3ccnc(Nc4cnn(C(C)C)c4)n3)cn(C)c2c1` [Example 96, N-[3-[2-[(1-isopropylpyrazol-4-yl)amino]pyrimidin-4-yl]-1-methyl-indol-6-yl]prop-2-enamide], the Kd in test [1], in test [2], in test [3] and in test [4] was 0.1 to 100 nM throughout.

For the compound `C=CC(=O)Nc1cnc2c(c1)c(C)cn2-c1ccnc(Nc2ccn(C)n2)n1` [Example 98, N-[3-methyl-1-[2-[(1-methylpyrazol-3-yl)amino]pyrimidin-4-yl]pyrrolo[2,3-b]pyridin-5-yl]prop-2-enamide], the Kd in test [1], in test [2], in test [3] and in test [4] was 0.1 to 100 nM in each case.

Consider `C=CC(=O)Nc1ccc2c(c1)c(C)cn2-c1nc(Nc2ccn(C3CC3)n2)ncc1C` [Example 99, N-[1-[2-[(1-cyclopropylpyrazol-3-yl)amino]-5-methyl-pyrimidin-4-yl]-3-methyl-indol-5-yl]prop-2-enamide], for which the Kd in test [1], in test [2], in test [3] and in test [4] was 0.1 to 100 nM each time.

Regarding `C=CC(=O)Nc1ccc2c(-c3ccnc(Nc4ccn(CCO)n4)n3)cn(C)c2c1` [Example 101, N-[3-[2-[[1-(2-hydroxyethyl)pyrazol-3-yl]amino]pyrimidin-4-yl]-1-methyl-indol-6-yl]prop-2-enamide], the Kd in test [1] lay in the range of 250 to 1000 nM; in test [2], 0.1 to 100 nM; in test [3], 100 to 250 nM; in test [4], 100 to 250 nM.

On to `C=C(C)C(=O)Nc1ccc2c(c1)c(C)cn2-c1nc(Nc2ccnn2C)ncc1C` [Example 104, 2-methyl-N-[3-methyl-1-[5-methyl-2-[(2-methylpyrazol-3-yl)amino]pyrimidin-4-yl]indol-5-yl]prop-2-enamide], for which the Kd in test [1], in test [2], in test [3] and in test [4] was over 1000 nM throughout.

Consider `C=CC(=O)Nc1ccc2c(-c3ccnc(Nc4cnn(CC5CC5)c4)n3)cn(C)c2c1` [Example 105, N-[3-[2-[[1-(cyclopropylmethyl)pyrazol-4-yl]amino]pyrimidin-4-yl]-1-methyl-indol-6-yl]prop-2-enamide], for which the dissociation constant (Kd) in test [1], in test [2], in test [3] and in test [4] was 0.1 to 100 nM in each case.

Regarding `C#CC(=O)Nc1ccc2c(c1)c(C)cn2-c1nc(Nc2ccnn2C)ncc1C` [Example 108, N-[3-methyl-1-[5-methyl-2-[(2-methylpyrazol-3-yl)amino]pyrimidin-4-yl]indol-5-yl]prop-2-ynamide], the Kd in test [1], in test [2], in test [3] and in test [4] was 0.1 to 100 nM each time.

On to `C=CS(=O)(=O)Nc1ccc2c(c1)c(C)cn2-c1nc(Nc2ccnn2C)ncc1C` [Example 109, N-[3-methyl-1-[5-methyl-2-[(2-methylpyrazol-3-yl)amino]pyrimidin-4-yl]indol-5-yl]ethenesulfonamide], for which the dissociation constant (Kd) in test [1], in test [2], in test [3] and in test [4] was 0.1 to 100 nM each time.

As for `C=C(F)C(=O)Nc1ccc2c(c1)c(C)cn2-c1nc(Nc2ccnn2C)ncc1C` [Example 110, 2-fluoro-N-[3-methyl-1-[5-methyl-2-[(2-methylpyrazol-3-yl)amino]pyrimidin-4-yl]indol-5-yl]prop-2-enamide], the Kd in test [1] was over 1000 nM; in test [2], over 1000 nM; in test [3], 250 to 1000 nM; in test [4], over 1000 nM.

As to `C=CC(=O)Nc1ccc2c(-c3ccnc(Nc4cc(C)[nH]n4)n3)cn(C)c2c1` [Example 111, N-[1-methyl-3-[2-[(5-methyl-1H-pyrazol-3-yl)amino]pyrimidin-4-yl]indol-6-yl]prop-2-enamide], the Kd in test [1], in test [2], in test [3] and in test [4] was over 1000 nM throughout.

As to `C=CC(=O)Nc1ccc2c(-c3ccnc(Nc4ccn(C5CC5)n4)n3)cn(C)c2c1` [Example 112, N-[3-[2-[(1-cyclopropylpyrazol-3-yl)amino]pyrimidin-4-yl]-1-methyl-indol-6-yl]prop-2-enamide], the Kd in test [1] was in the range of 100 to 250 nM; in test [2] it was 0.1 to 100 nM; in test [3], 0.1 to 100 nM; in test [4], 100 to 250 nM.

The Kd is the free concentration of one partner at which half of the binding sites on the other are occupied at equilibrium, for simple one-to-one binding. A low value points to tighter binding.
